Experiments:
PPARα [1] = experiment: PPAR reporter assay in 293T cells, PPARα (agonist WY14643); type: cell-based; settings: 1 μM agonist WY14643
PPARδ [2] = target: T1, PPARδ (Homo sapiens, UniProt Q03181); experiment: Fluorescent Polarization (FP) binding assay with corepressor peptides, PPARδ; settings: Nb = no binding
T1 construct: purchased Cayman Chemicals
T1 sequence (Q03181 1-441): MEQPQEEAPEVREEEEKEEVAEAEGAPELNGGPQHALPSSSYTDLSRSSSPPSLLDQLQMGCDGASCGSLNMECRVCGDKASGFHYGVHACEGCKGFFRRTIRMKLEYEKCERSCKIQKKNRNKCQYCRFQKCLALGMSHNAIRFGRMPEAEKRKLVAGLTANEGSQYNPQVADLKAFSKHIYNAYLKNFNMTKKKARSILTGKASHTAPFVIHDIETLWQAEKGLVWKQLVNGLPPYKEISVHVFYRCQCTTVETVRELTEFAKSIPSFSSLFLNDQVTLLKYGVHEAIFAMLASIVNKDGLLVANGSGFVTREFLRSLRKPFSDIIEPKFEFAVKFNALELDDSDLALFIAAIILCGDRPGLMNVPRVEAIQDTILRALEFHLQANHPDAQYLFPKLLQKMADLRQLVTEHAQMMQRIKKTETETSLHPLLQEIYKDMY
Method: (§1) For PPARγ screening, a fluorescent ligand supplied by Cayman Chemicals was also used. All compounds were dissolved in DMSO as 10 mM stock solutions and the final DMSO content in the assay was <1%. A TECAN Ultra 485 multi-functional microplate reader and GraphPad prism 4 software were used for measurements and analysis, respectively.
(§2) PPAR antagonists are expected to enhance the affinities of the corepressor peptides, and therefore, FP should increase as the compound concentration increases. Agonists would be expected to weaken the affinity of the same co-repressor peptide. Although this effect occurs for PPARγ, the dissociation of corepressor peptides varies for PPARα and PPARδ due to altered presentations of the overlapping coactivator/corepressor binding surfaces (Stanley T. B. et al. Biochemistry 42:9278-87, 2003). Compounds were screened initially against PPARγ and PPARδ at 1 and 100 μM. If binding was observed, titration experiments from 10 nM to 100 μM were carried out in triplicate with all three PPARs. […] For screening, either enhancement or weakening of FP was considered active.
(§3) Virtual screening for PPARγ was conducted against 56,000 compounds from the Maybridge library that targeted the ligand binding domain (LBD) of PPARγ, and 10 conformations of each compound were docked to the LBD using Autdock4 software (Scripps Institute). Sixty of the top ranked compounds were ordered from Maybridge, and 58 were available for evaluation. Fluorescent Polarization (FP) assays were established with the tagged co-repressor peptides NCoR1 and SMRT, the recombinant PPARα and PPARγ ligand-binding domains and full-length PPARδ. […] Sd-107 and its analogs are disclosed herein. The chemical structure is shown below.

PPARα [3] = target: T2, PPARα (Homo sapiens, UniProt Q07869); experiment: Fluorescent Polarization (FP) binding assay with corepressor peptides, PPARα; settings: Nb = no binding
T2 construct: purchased Cayman Chemicals
T2 sequence (Q07869 239-466 limits assumed): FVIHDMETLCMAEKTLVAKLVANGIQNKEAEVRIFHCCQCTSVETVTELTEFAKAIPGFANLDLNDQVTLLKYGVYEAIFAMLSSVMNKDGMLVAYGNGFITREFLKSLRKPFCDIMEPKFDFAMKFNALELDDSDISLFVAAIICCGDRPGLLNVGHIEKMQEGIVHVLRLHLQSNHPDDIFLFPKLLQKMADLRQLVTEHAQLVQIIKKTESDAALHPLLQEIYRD
Method: as §1, §2, §3

PPARγ [4] = target: T3, PPARγ (Mus musculus, UniProt P37238); experiment: PPAR reporter assay in 293T cells, PPARγ (agonist GW7845); type: cell-based; settings: for inhibition at 1 µM: 1 μM compound; for inhibition at 10 µM: 10 μM compound; for inhibition at 25 µM: 25 μM compound
T3 construct: expressed in transfected cells; host or cells: 293T cells
T3 sequence (P37238 1-505): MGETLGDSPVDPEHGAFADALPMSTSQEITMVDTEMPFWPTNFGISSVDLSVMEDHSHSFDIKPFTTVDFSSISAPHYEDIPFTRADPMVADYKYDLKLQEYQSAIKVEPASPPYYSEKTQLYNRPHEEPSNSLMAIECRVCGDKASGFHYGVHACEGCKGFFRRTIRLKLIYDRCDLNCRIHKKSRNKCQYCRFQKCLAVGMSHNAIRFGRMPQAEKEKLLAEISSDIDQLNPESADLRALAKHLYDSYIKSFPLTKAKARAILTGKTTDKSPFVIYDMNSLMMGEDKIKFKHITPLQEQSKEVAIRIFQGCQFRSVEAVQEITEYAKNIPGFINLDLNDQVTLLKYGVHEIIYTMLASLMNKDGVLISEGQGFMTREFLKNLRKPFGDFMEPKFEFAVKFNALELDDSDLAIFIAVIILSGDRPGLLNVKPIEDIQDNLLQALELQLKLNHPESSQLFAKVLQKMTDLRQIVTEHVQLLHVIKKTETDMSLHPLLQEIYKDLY

PPARδ [5] = experiment: PPAR reporter assay in 293T cells, PPARδ (agonist GW501516); type: cell-based; settings: 1 μM agonist GW501516
PPARα, PPARγ, PPARδ = experiment: PPAR reporter assays, isotype profile over the three PPARs; settings: for PPAR inhibitor type (Table 1): from reporter data; for PPAR isotype selectivity in reporter assays: inhibition of activation by 1 μM agonist
PPARγ [6] = target: T4, PPARγ (Homo sapiens, UniProt P37231); experiment: Fluorescent Polarization (FP) binding assay with corepressor peptides, PPARγ; settings: for EC50: read-out: Binding assay EC50, γ; for Competition in FPA of PPARγ with fluorescent labeled NCoR peptide probe: FIG. 17, YL-1-80 analogs
T4 construct: purchased Cayman Chemicals
T4 sequence (P37231 238-503 limits assumed): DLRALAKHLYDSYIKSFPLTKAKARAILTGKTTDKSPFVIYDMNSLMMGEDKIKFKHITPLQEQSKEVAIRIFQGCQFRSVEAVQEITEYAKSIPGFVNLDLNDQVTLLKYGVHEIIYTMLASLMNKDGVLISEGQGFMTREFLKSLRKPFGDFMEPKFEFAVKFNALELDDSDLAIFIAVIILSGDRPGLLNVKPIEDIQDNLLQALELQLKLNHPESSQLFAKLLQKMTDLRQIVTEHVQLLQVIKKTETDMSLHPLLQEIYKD
Method: as §1, §2, §3

[7] = HEK-293T, 1 μM agonist GW7845, 293T cells, read-out: Reporter assay (% inhibition), γ

Structure (SMILES)	Reporter assay (% inhibition), α (PPARα [1]; 1 μM compound) [%]	Reporter assay (% inhibition), α (PPARα [1]; 10 μM compound) [%]	Reporter assay (% inhibition), α (PPARα [1]; 25 μM compound) [%]	Binding assay EC50, δ (PPARδ [2])	Binding assay EC50, α (PPARα [3])	inhibition at 1 µM (PPARγ [4]; [7]) [%]	inhibition at 10 µM (PPARγ [4]; [7]) [%]	inhibition at 25 µM (PPARγ [4]; [7]) [%]	Reporter assay (% inhibition), δ (PPARδ [5]; 1 μM compound)	Reporter assay (% inhibition), δ (PPARδ [5]; 10 μM compound) [%]	Reporter assay (% inhibition), δ (PPARδ [5]; 25 μM compound) [%]	PPAR inhibitor type (Table 1) (PPARα, PPARγ, PPARδ)	PPAR isotype selectivity in reporter assays (PPARα, PPARγ, PPARδ)	EC50 (PPARγ [6]; FP assay, Nb = no binding) [nM]	Competition in FPA of PPARγ with fluorescent labeled NCoR peptide probe (PPARγ [6])	inhibition at 2.5 µM (PPARγ [4]; HEK-293T, 2.5 μM compound, 1 μM agonist GW7845, 293T cells, read-out: Reporter assay (% inhibition), γ) [%]	Reporter assay (% inhibition), δ (PPARδ [5]; 2.5 μM compound) [%]	Binding assay EC50, γ (PPARγ [6]; FP assay, Nb = no binding)	EC50 (PPARα [3]; read-out: Binding assay EC50, α) [nM]	PPARγ antagonism (PPARγ [4]; binding and reporter screening)
O=C1NN(c2cccc(F)c2)C(=O)/C1=C\c1ccc(-c2ccc(S(=O)(=O)Nc3ncco3)cc2)o1 [Sd-107-10]	0	0	20	δ nb	nb	0	40	85	0%	0	10	PPARγ inhibitor	greatest selectivity for PPARγ	560	–	–	–	–	–	–
CC(C)(C)c1ccc(C(=O)N(NC(=O)c2ccc(Cl)cc2)S(=O)(=O)c2ccc(C(C)(C)C)cc2)cc1 [YL-1-80]	0	24	53	δ nb	nb	18	58	79	δ 12%	31	64	Pan inhibitor	–	9200	best competition	–	–	–	–	–
CC(C)(C)c1ccc(S(=O)(=O)N(C(=O)c2ccc(Cl)cc2)N(C(=O)c2ccc(Cl)cc2)C(=O)c2ccc(Cl)cc2)cc1 [YL-1-68-1]	0	0	17	δ nb	α nb γ nb	0	50	75	0%	0	47	PPARγ/δ inhibitor	–	–	–	16	0	α nb γ nb	–	–
CC(C)(C)c1ccc(S(=O)(=O)N(NC(=O)c2ccc(Cl)nc2)C(=O)c2ccc(Cl)nc2)cc1 [YL-1-83]	0	0	0	δ nb	–	0	0	37	0%	0	0	PPARγ inhibitor	more selective for PPARγ	110	best competition	–	–	–	1300	weak PPARγ antagonist
